Data published in US6391891B1, “Bicyclic compounds as ligands for 5-HT1 receptors” (SmithKline Beecham plc, priority 1997, dated 2002).

Experiments:
[1] = biological target: T1, 5-HT1B receptors (Homo sapiens, UniProt P28222); assay: 5-HT1B receptor radioligand binding assay ([3H]-5-HT); details: CHO cells expressing 5-HT1B receptors; [3H]-5-HT 4 nM; 37° C., 45 minutes; read-out: pKi at 5-HT1B receptors (converted)
T1 construct: expressed in transfected cells; host or cells: CHO cells
Experimental: (§1) The affinities of the compounds of this invention for the 5HT1A, 5-HT1B and 5-HT1D receptors can be determined by the following radioligand binding assay. HEK 293 cells expressing 5-HT1A receptors (4×10^7/ml) are homogenised in Tris buffer and stored in 1 ml aliquots. CHO cells expressing 5-HT1B receptors (4×10^7 cells/ml) are homogenised in Tris buffer and stored in 1.5 ml aliquots. CHO cells expressing 5-HT1D receptors (0.563×10^8/ml) are homogenised in Tris buffer and stored in 1 ml aliquots. 0.4 ml of a cell suspension is incubated with [^3H]-5-HT (4 nM) for 5-HT1B/1D receptors and [^3H]-8-OH DPAT (1 nM) for 5-HT1A receptors in Tris Mg HCl buffer (pH 7.7) and test drug, at 37° C. for 45 minutes. Each test drug is tested at 10 concentrations (0.01 mM to 0.3 nM final concentration), with non-specific binding defined using 0.01 mM 5-HT. The total assay volume is 0.5 ml. Incubation is stopped by rapid filtration using a Packard Filtermate (filters pre-soaked in 0.3% polyethylenimine) and radioactivity measured by Topcount scintillation counting. pKi values are calculated from the IC50 generated by an iterative least squares curve fitting programme.
(§2) The affinities of the compounds of this invention were determined by methods described above.
(§3) 5-HT1A, 5-HT1B and 5-HT1D Receptor Binding

[2] = biological target: T2, 5-HT1D receptors (Homo sapiens, UniProt P28221); assay: 5-HT1D receptor radioligand binding assay ([3H]-5-HT); details: CHO cells expressing 5-HT1D receptors; [3H]-5-HT 4 nM; 37° C., 45 minutes; read-out: pKi at 5-HT1D receptors (converted)
T2 construct: expressed in transfected cells; host or cells: CHO cells
Experimental: as §1, §2, §3

[3] = biological target: T3, 5-HT1A receptors (Homo sapiens, UniProt P08908); assay: 5-HT1A receptor radioligand binding assay ([3H]-8-OH DPAT); details: HEK 293 cells expressing 5-HT1A receptors; [3H]-8-OH DPAT 1 nM; 37° C., 45 minutes; read-out: pKi at 5-HT1A receptors (converted)
T3 construct: expressed in transfected cells; host or cells: HEK 293 cells
T3 sequence (P08908 1-422): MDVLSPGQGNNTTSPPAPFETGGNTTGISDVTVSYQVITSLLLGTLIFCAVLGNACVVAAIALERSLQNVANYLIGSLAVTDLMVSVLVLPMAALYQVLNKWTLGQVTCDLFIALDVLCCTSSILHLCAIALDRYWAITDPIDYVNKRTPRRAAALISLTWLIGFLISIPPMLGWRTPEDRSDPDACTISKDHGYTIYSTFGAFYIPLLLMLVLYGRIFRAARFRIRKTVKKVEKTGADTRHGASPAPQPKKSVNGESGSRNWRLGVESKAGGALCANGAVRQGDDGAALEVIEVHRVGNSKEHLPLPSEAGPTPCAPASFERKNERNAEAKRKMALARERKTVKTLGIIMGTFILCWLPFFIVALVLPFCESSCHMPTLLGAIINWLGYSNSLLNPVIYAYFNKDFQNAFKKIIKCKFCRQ
Experimental: as §1, §2, §3

T2 sequence (P28221 whole entry): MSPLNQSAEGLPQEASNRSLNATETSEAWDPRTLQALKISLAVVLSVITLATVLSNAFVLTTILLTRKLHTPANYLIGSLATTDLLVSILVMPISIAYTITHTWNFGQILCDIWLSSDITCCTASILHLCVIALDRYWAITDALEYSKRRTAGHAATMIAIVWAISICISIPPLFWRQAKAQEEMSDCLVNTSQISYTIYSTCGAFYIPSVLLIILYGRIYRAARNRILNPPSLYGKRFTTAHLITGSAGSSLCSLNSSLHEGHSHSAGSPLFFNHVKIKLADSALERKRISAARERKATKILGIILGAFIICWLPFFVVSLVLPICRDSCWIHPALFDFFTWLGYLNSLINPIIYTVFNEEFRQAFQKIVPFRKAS
T1 sequence (P28222 whole entry): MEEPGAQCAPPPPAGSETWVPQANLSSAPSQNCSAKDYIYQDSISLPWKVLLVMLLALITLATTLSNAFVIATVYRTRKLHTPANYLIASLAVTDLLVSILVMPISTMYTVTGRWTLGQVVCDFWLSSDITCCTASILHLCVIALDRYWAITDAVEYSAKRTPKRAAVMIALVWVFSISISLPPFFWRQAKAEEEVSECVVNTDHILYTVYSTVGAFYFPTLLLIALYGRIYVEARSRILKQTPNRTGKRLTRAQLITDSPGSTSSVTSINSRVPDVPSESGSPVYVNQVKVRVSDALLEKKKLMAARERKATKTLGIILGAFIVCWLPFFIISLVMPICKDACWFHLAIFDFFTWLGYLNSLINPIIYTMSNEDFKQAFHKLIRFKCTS

Ki [1] | Ki [2] | Ki [3] | SMILES
< 10 nM | < 10 nM | < 10 nM | CN1CCC(c2c[nH]c3ccc(NC(=O)Nc4ccc(-c5ccncc5)cc4Cl)cc23)CC1 [Example 4, N-[2-Chloro-4-(pyridin-4-yl)phenyl]-N′-[3-(1-methylpiperidin-4-yl)indol-5-yl]-urea]
< 10 nM | < 10 nM | < 10 nM | CN1CCC(c2c[nH]c3ccc(NC(=O)Nc4ccc(-c5ccncc5)c(Cl)c4Cl)cc23)CC1 [Example 3, N-[2,3-Dichloro-4-(pyridin-4-yl)phenyl]-N′-[3-(1-methylpiperidin-4-yl)indol-5-yl]-urea]
< 10 nM | < 10 nM | < 10 nM | CN1CC=C(c2csc3ccc(NC(=O)Nc4ccc(-c5ccncc5)c5ccccc45)cc23)CC1 [Example 10, N-[3-(1-Methyl-1,2,5,6-tetrahydropyridin-4-yl)benzo[b]thiophen-5-yl]-N′-[4-(pyridin-4-yl)naphth-1-yl]-urea]
< 10 nM | < 10 nM | < 10 nM | CN1CCC(c2csc3ccc(NC(=O)Nc4ccc(-c5ccncc5)c5ccccc45)cc23)CC1 [Example 12, N-[3-(1-Methylpiperidin-4-yl)benzo[b]thiophen-5-yl]-N′-[-4-(pyridin-4-yl)naphth-1-yl]-urea]
< 10 nM | < 10 nM | < 10 nM | CN1CCC(c2c[nH]c3ccc(NC(=O)Nc4ccc(-c5ccncc5)c(Cl)c4)cc23)CC1 [Example 8, N-[3-Chloro-4-(pyridin-4-yl)phenyl]-N′-[3-(1-methylpiperidin-4-yl)indol-5-yl]-3-urea]
< 10 nM | < 10 nM | < 10 nM | CN1CCC(c2c[nH]c3ccc(NC(=O)Nc4ccc(-c5ccncc5)c5ccccc45)cc23)CC1 [Example 1, N-[3-(1-Methylpiperdin-4-yl)indol-5-yl]-N′-[4-(pyridin-4-yl)naphth-1-yl]-urea]

SMILES | Ki [1] | Ki [2] | Ki [3]
CN1CC=C(c2csc3ccc(NC(=O)Nc4ccc(-c5ccncc5)c(Cl)c4)cc23)CC1 [Example 9, N-[3-Chloro-4-(pyridin-4-yl)phenyl]-N′-[3-(1-methyl-1,2,5,6-tetrahydropyridin-4-yl)benzo[b]thiophen-5-yl]-urea] | < 10 nM | < 10 nM | < 10 nM
